The test system of assay [1] is MSC. In words: Growth/proliferation of MSC isolated in 10% FBS and re-attached under serum-free conditions. In kind it is cell-based. Conditions: fibronectin-coated; for MSC proliferation in serum free medium containing FGF2 (5 ng/ml): 5 days; for MSC proliferation in serum free medium: over 3 passages, days 5, 10 and 15. Here is the method:
Tissue culture flasks were pre-coated with FN (black), HA (blue), VN (red) or LN (green) and cells were allowed to adhere in serum-free conditions. Cell numbers were obtained after 5 days. Controls include serum-free plating without the presence of an ECM attachment factor and 10% FBS (grey). Results are representative of 3 biological replicates with n=2;
Cells were then cultured in the presence of growth factors and passaged every 5 days. Controls include serum free plating without growth factors and 10% FBS. Results are representative of 3 biological replicates with n=2;
Cells were then cultured in serum-free media containing FGF2 (5 ng/ml) in the presence of PGE2, cholesterol or lipoprotein for 5 days. Controls include serum free plating without growth factors 10% FBS (A). Cells were then cultured in the presence of lipoprotein and passaged every 5 days for 3 passages, controls include serum free plating without lipoprotein (B). Results are representative of 3 biological replicates with n=2;
(§1) Proliferation of the MSC attached in the presence of basic fibroblast growth factor (bFGF2, FGF2) was also assessed after 6 days.
Serum-free basal medium formulation was selected based on the literature describing low-serum cell culture of dental pulp stem cells (Tarle et al., 2010). The basal medium was composed of ITS (1%, BD), ascorbic acid (10 mM, Sigma Aldrich), dexamethasone (10 nM, Sigma Aldrich), human serum albumin (50 mg/ml, Sigma Aldrich), penicillin/streptomycin solution (1%, Gibco) and MEM-α (Gibco). The effect of a range of growth factors on MSC proliferation was then examined. MSC were attached on fibronectin-coated tissue culture plastic for 48 hours in serum-free basal medium.
The effect of FGF2/FGF4 and FGF7 (1, 5 and 10 ng/ml), PDGFaa/PDGFab and PDGFbb (1, 5 and 10 ng/ml) on MSC proliferation over 3 passages on days 5, 10 and 15 was examined.
To further enhance MSC viability and proliferation lipoprotein was added to the serum-free basal medium. MSC isolated in the presence of serum were seeded on fibronectin-coated tissue culture plastic in serum free medium containing FGF2. Initially a range of factors were screened to support MSC viability after trypsinisation; the effect of prostoglandin E2 (PGE2; 50 μg/ml), cholesterol (30 μg/ml) and lipoprotein (4 μg/ml) on MSC proliferation in serum free medium containing FGF2 (5 ng/ml) was examined.

Assay [2] has as its system MSC. The assay is described as follows: Attachment of MSC isolated in 10% FBS and re-attached under serum-free conditions. In kind it is cell-based. Conditions: EGF 10 ng/ml, serum free with FGF2, 3 passages.
Text: Tissue culture flasks were pre-coated with fibronectin (FN; black), hylauronic acid (HA; blue), vitronectin (VN; red) or laminin (LN; green) and cells were allowed to adhere in serum-free conditions. Controls include serum-free plating without the presence of an extra-cellular matrix (ECM) attachment factor and 10% FBS (grey). Results are representative of 3 biological replicates with n=2;
MSC were attached on tissue culture flasks in the presence of EGF (red) or on tissue culture plastic precoated with FN (purple) or in the presence of EGF on fibronectin coated plastic (green) and passaged every 3 days. Controls include serum free plating without the presence of an ECM attachment factor (blue) and 10% FBS (black). Results are representative of 3 biological replicates with n=2;
as §1

Assay [3] relates to MSC. The assay is described as follows: Serum-free MSC isolation from bone marrow (CFU and cell number at end of primary culture). In kind it is cell-based. Here is the method:
The number of colony forming units (CFU; FIG. 6A) and cell number (FIG. 6B) was determined at the end of primary culture. An additional marrow was seeded on tissue culture plastic pre-coated with varying concentrations of fibronectin to determine optimal concentration of fibronectin required. The number of CFU (FIG. 6C) and cell yield (FIG. 6D) was determined at the end of primary culture. Controls include MSC isolation in the presence of 10% FBS or on non-coated tissue culture plastic;
The number of colony forming units (FIG. 7A) and cell number (FIG. 7B) was determined at the end of primary culture. Controls include MSC isolation in the presence of 10% FBS or on non-coated tissue culture plastic;
Initially MSC were isolated from three bone marrows to determine a suitable attachment substrate. […] A further bone marrow donor was then screened to determine the optimal fibronectin concentration; 6 μg/ml was selected as the favourable concentration (FIGS. 6C and 6D).
To examine the role of EGF in MSC isolation and attachment, 5 bone marrows were tested. MSC were isolated in the presence of FGF2 (5 ng/ml) on fibronectin coated plastic in the presence of EGF, or on tissue culture plastic in the presence of EGF.

The test system of assay [4] is bone marrow mononuclear cells (MNCs). The assay is described as follows: CFU-f assay, SF medium with various lipoproteins or fibronectin. In kind it is cell-based, human. The note with it: no fibronectin vs pre-coating vs fibronectin added to the medium; standard SF medium with LDL. As to the method: For the lipoprotein study, Serum Free (SF) media was prepared containing: no lipoprotein (No lipo), very low density lipoprotein (VLDL), low density lipoprotein (LDL) and high density lipoprotein (HDL). Other lipoproteins that exist are chylomicrons and intermediate density lipoprotein which were not assessed in this study as they were not commercially available at the time. MSCs were isolated from bone marrow based on plastic adherence in SF medium by plating 40×10^6 human bone marrow mononuclear cells/T-175 and culturing at 37° C., 5% CO2, 21% O2. Cells were subcultured once they had reached 80-90% confluence. MSCs were evaluated by assessing growth kinetics, tri-lineage differentiation and surface marker phenotype at the end of passage 3 (P3). For the lipoprotein study, SF medium was modified to contain one of the various lipoproteins at 80 ng/mL and these cells are seeded onto T175 flasks, which had been pre-coated with fibronectin. For the fibronectin study described, standard SF medium containing LDL (Standard Formulation) was used and cells were seeded onto T175 flasks without fibronectin, with fibronectin pre-coating or with fibronectin added to the medium itself. CFU-f assays were carried out by seeding bone marrow mononuclear cells (MNCs) at a density of 1×10^6 MNC/10 cm^2 in triplicate in 6-well plates. […]

The next assay concerns MSCs. The assay is described as follows: Growth kinetics of MSC cultures, lipoprotein and fibronectin study. The note with it: no fibronectin vs pre-coating vs fibronectin in the medium. In kind it is cell-based, human. As to the method: MSCs were isolated from bone marrow based on plastic adherence in SF medium by plating 40×10^6 human bone marrow mononuclear cells/T-175 and culturing at 37° C., 5% CO2, 21% O2. Cells were subcultured once they had reached 80-90% confluence. MSCs were evaluated by assessing growth kinetics, tri-lineage differentiation and surface marker phenotype at the end of passage 3 (P3). For the lipoprotein study, SF medium was modified to contain one of the various lipoproteins at 80 ng/mL and these cells are seeded onto T175 flasks, which had been pre-coated with fibronectin. […]
VLDL and LDL are involved in trafficking fats to cells in arteries which may indicate why these groups had cells which formed more disperse healthier looking CFU-fs. […] Applying these CFU-f numbers with cell yields at the end of each passage, growth curves were calculated. […]
The final aim of this work was to determine if fibronectin is required for isolation and establishment of MSC cultures in the proprietary serum-free medium. […] This was assessed by looking at CFU-f numbers and growth kinetics of cells isolated from bone marrow directly onto tissue culture plastic without fibronectin, onto tissue culture plastic pre-coated with fibronectin and finally with fibronectin incorporated into the medium itself.

[5] abbreviates: three bone marrows, attachment substrate vs vitronectin and hyaluronic acid.

On to `CCCCC[C@H](O)/C=C/[C@H]1[C@H](O)CC(=O)[C@@H]1C/C=C\CCCC(=O)O` [PGE2, prostoglandin E2, reference compound], for which, in the assay with MSC [1] (50 μg/ml), the “MSC proliferation in serum free medium containing FGF2 (5 ng/ml)” value is listed as “inhibitory effect”.
With `CC(C)CCC[C@@H](C)[C@H]1CC[C@H]2[C@@H]3CC=C4C[C@@H](O)CC[C@]4(C)[C@H]3CC[C@]12C` [cholesterol, reference compound], the “MSC proliferation in serum free medium containing FGF2 (5 ng/ml)” value in the assay on MSC [1] (30 μg/ml) is on record as “inhibitory effect”.
With EGF: epidermal growth factor, the “MSC attachment over passaging” value in the assay with MSC [2] is reported as “increased MSC attachment”.
FGF2: basic fibroblast growth factor: the “MSC proliferation in serum free medium” value in the assay on MSC [1] (5 ng/ml) is “increased MSC proliferation”.
Take PDGFab: growth factor PDGFab: in the assay with MSC [1] (10 ng/ml), the “MSC proliferation in serum free medium” value was “increased MSC proliferation”.
Turning to fibronectin, in the assay with MSC [3] (5 bone marrows, FGF2 5 ng/ml, with EGF, coated vs uncoated plastic), the “requirement for MSC attachment” value is recorded as “required”. In addition, in the assay with MSC [3] (setting [5]), the “cell number at the end of the first passage” value is given as “greatest cell number” and the colony forming units result is recorded as “more colony forming units”. Besides, the “ability of CFU-fs to form / CFU-f numbers with or without fibronectin” value in assay [4] is “No difference”. The “growth kinetics of the MSC cultures with or without fibronectin” value with MSCs is “unaffected”.
